What is called Ki is the equilibrium dissociation constant of an inhibitor or competing ligand from its target. Lower therefore signals a stronger hold on the target.

Where a name gives a salt, the structure may show the parent alone.

Experiment [1] deals with human Factor XIa (Homo sapiens, UniProt P03951). Nature of the experiment: biochemical. The conditions noted are these: purified human Factor XIa, substrate S-2366, HEPES buffer pH 7.4.
For experiment [2], the target named is human plasma kallikrein (Homo sapiens, UniProt P03952). Briefly: biochemical. The following applies: purified human plasma kallikrein, substrate S-2302, sodium phosphate buffer pH 7.5.
Sequence of human plasma kallikrein (P03952 391-638 limits assumed): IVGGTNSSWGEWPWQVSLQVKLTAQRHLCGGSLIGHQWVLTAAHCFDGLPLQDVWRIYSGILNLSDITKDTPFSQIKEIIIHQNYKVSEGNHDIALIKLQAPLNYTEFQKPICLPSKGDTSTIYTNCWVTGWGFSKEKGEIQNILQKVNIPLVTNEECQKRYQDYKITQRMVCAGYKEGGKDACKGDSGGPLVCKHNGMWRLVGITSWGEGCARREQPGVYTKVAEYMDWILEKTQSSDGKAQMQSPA
Sequence of human plasma kallikrein (P03952 20-390 partner limits assumed): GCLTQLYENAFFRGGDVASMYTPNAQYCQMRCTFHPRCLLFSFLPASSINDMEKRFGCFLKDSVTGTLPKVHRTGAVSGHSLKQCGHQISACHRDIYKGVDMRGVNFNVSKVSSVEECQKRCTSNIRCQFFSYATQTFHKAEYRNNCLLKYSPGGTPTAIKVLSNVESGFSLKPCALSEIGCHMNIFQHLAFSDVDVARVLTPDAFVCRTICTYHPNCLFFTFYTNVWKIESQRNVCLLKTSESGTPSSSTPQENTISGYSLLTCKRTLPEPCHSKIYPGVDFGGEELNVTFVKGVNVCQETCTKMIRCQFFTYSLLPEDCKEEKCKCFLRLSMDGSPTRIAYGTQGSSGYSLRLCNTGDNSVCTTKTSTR

Sequence of human Factor XIa (P03951 388-625 limits assumed): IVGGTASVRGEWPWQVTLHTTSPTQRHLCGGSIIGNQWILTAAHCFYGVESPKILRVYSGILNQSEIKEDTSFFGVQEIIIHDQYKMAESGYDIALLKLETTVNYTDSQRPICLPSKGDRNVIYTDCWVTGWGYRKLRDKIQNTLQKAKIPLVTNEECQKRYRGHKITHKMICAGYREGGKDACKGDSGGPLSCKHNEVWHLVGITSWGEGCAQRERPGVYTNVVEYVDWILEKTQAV
Sequence of human Factor XIa (P03951 19-387 partner limits assumed): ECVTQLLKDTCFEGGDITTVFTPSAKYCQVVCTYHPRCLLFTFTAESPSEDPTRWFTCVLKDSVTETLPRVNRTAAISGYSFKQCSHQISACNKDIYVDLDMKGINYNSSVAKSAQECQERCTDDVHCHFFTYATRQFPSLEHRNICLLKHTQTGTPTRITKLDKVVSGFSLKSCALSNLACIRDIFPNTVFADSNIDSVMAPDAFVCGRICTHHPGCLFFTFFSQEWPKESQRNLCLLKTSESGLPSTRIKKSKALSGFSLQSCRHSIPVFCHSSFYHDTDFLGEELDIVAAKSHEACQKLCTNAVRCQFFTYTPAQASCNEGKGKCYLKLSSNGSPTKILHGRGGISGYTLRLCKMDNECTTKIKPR

The molecule `C[C@@H]1CCC[C@H](n2cnc(-c3c(-n4cnnn4)ccc(Cl)c3F)cc2=O)c2cc(ccn2)-c2cc(F)ccc2NC1=O` [Example 35, (10R,14S)-14-{4-[3-chloro-2-fluoro-6-(1H-1,2,3,4-tetrazol-1-yl)phenyl]-6-oxo-1,6-dihydropyrimidin-1-yl}-4-fluoro-10-methyl-8,16-diazatricyclo[13.3.1.0^2,7]nonadeca-1(19),2(7),3,5,15,17-hexaen-9-one trifluoroacetate] showed a Ki in experiment [1] of 0.1 nM.

On to `C[C@@H]1CCC[C@H](n2cnc(-c3cc(Cl)ccc3-n3cc(C(F)(F)F)nn3)cc2=O)c2cc(ccn2)-c2ccc(C#N)cc2NC1=O` [Example 43, (10R,14S)-14-(4-{5-chloro-2-[4-(trifluoromethyl)-1H-1,2,3-triazol-1-yl]phenyl}-6-oxo-1,6-dihydropyrimidin-1-yl)-10-methyl-9-oxo-8,16-diazatricyclo [13.3.1.0^2,7]nonadeca-1(19),2(7),3,5,15,17-hexaene-5-carbonitrile trifluoroacetate], for which the Ki in experiment [1] amounted to 3 nM. As to `C[C@@H]1CCC[C@H](n2cnc(-c3cc(Cl)ccc3F)cc2=O)c2cc(ccn2)-c2cc(F)ccc2NC1=O` [Example 50, (10R,14S)-14-[4-(5-chloro-2-fluorophenyl)-6-oxo-1,6-dihydropyrimidin-1-yl]-4-fluoro-10-methyl-8,16-diazatricyclo[13.3.1.0^2,7]nonadeca-1(19),2(7),3,5,15,17-hexaen-9-one trifluoroacetate], in experiment [1], the Ki stood at 290 nM.

In experiment [1], `C[C@@H]1CCC[C@H](n2cnc(-c3cc(Cl)ccc3-n3cc(Cl)nn3)cc2=O)c2cc(ccn2)-c2ccccc2NC1=O` [Example 57, (10R,14S)-14-{4-[5-chloro-2-(4-chloro-1H-1,2,3-triazol-1-yl)phenyl]-6-oxo-1,6-dihydropyrimidin-1-yl}-10-methyl-8,16-diazatricyclo[13.3.1.0^2,7]nonadeca-1(19),2,4,6,15,17-hexaen-9-one] had a Ki of 0.28 nM. In the case of `COC(=O)Nc1ccc2c(c1)CCCCCC[C@H](n1cnc(-c3cc(Cl)ccc3-n3cc(Cl)nn3)cc1=O)c1nc-2c[nH]1` [Example 131, methyl N-[(14S)-14-{4-[5-chloro-2-(4-chloro-1H-1,2,3-triazol-1-)phenyl]-6-oxo-1,6-dihydropyrimidin-1-yl}-16,18-diazatricyclo[13.2.1.0^2,7]octadeca-1(17),2,4,6,15 (18)-pentaen-5-yl]carb amate trifluoroacetate], the affinity in experiment [2], expressed as Ki, was 2200 nM. Consider `COC(=O)Nc1ccc2c(c1)CCCCCC[C@H](n1cnc(-c3cc(Cl)ccc3-n3cnnn3)cc1=O)c1nc-2c[nH]1` [Example 132, methyl N-[(14S)-14-{4-[5-chloro-2-(1H-1,2,3,4-tetrazol-1-yl)phenyl]-6-oxo-1,6-dihydropyrimidin-1-yl}-16,18-diazatricyclo[13.2.1.0^2,7]octadeca-1(17),2,4,6,15(18)-pentaen-5-yl]carbamate trifluoroacetate], for which, in experiment [2], the Ki amounted to 340 nM.

Take `C[C@@H]1CCC[C@H](n2cnc(-c3cc(Cl)ccc3-n3cc(C(F)(F)F)nn3)cc2=O)c2cc(ccn2)-c2cc(F)ccc2NC1=O` [Example 135, (10R,14S)-14-(4-{5-chloro-2-[4-(trifluoromethyl)-1H-1,2,3-triazol-1-yl]phenyl}-6-oxo-1,6-dihydropyrimidin-1-yl)-4-fluoro-10-methyl-8,16-diazatricyclo [13.3.1.0^2,7]nonadeca-1(19),2(7),3,5,15,17-hexaen-9-one trifluoroacetate]: in experiment [2], the Ki is 29 nM. With `CCOc1cn(-c2ccc(Cl)c(F)c2-c2cc(=O)n([C@H]3CCC[C@@H](C)C(=O)Nc4ccc(F)cc4-c4ccnc3c4)cn2)nn1` [Example 136, (10R,14S)-14-{4-[3-chloro-6-(4-ethoxy-1H-1,2,3-triazol-1-yl)-2-fluorophenyl]-6-oxo-1,6-dihydropyrimidin-1-yl}-4-fluoro-10-methyl-8,16-diazatricyclo [13.3.1.0^2,7]nonadeca-1(19),2(7),3,5,15,17-hexaen-9-one trifluoroacetate], the affinity in experiment [2], expressed as Ki, was 76 nM. As to `Cc1cn(-c2ccc(Cl)c(F)c2-c2cc(=O)n([C@H]3CCC[C@@H](C)C(=O)Nc4ccc(F)cc4-c4ccnc3c4)cn2)nn1` [Example 137, (10R,14S)-14-{4-[3-chloro-2-fluoro-6-(4-methyl-1H-1,2,3-triazol-1-yl)phenyl]-6-oxo-1,6-dihydropyrimidin-1-yl}-4-fluoro-10-methyl-8,16-diazatricyclo[13.3.1.0^2,7]nonadeca-1(19),2(7),3,5,15,17-hexaen-9-one], in experiment [2], affinity was put at a Ki of 12 nM. `C[C@@H]1CCC[C@H](n2cnc(-c3cc(Cl)ccc3-n3cc(O)nn3)cc2=O)c2cc(ccn2)-c2cc(F)ccc2NC1=O` [Example 139, (10R,14S)-14-{4-[5-chloro-2-(4-hydroxy-1H-1,2,3-triazol-1-yl)phenyl]-6-oxo-1,6-dihydropyrimidin-1-yl}-4-fluoro-10-methyl-8,16-diazatricyclo[13.3.1.0^2,7]nonadeca-1(19),2(7),3,5,15,17-hexaen-9-one trifluoroacetate] gave a Ki in experiment [2] of 510 nM. Molecule `C[C@@H]1CCC[C@H](n2cnc(-c3cc(Cl)ccc3C(F)(F)F)cc2=O)c2cc(ccn2)-c2cc(F)ccc2NC1=O` [Example 141, (10R,14S)-14-{4-[5-chloro-2-(trifluoromethyl)phenyl]-6-oxo-1,6dihydropyrimidin-1-yl}-4-fluoro-10-methyl-8,16-diazatricyclo[13.3.1.0^2,7]nonadeca-1(19),2(7),3,5,15,17-hexaen-9-one trifluoroacetate] registered a Ki in experiment [2] of 580 nM. In experiment [2], `CCOc1cn(-c2ccc(Cl)cc2-c2cc(=O)n([C@H]3CCC[C@@H](C)C(=O)Nc4ccc(F)cc4-c4ccnc3c4)cn2)nn1` [Example 144, (10R,14S)-14-{4-[5-chloro-2-(4-ethoxy-1H-1,2,3-triazol-1-yl)phenyl]-6-oxo-1,6-dihydropyrimidin-1-yl}-4-fluoro-10-methyl-8,16-diazatricyclo[13.3.1.0^2,7]nonadeca-1(19),2(7),3,5,15,17-hexaen-9-one trifluoroacetate] registered a Ki of 210 nM.

For the molecule `C[C@@H]1CCC[C@H](n2cnc(-c3cc(Cl)ccc3OC(F)(F)F)cc2=O)c2cc(ccn2)-c2cc(F)ccc2NC1=O` [Example 146, (10R,14S)-14-{4-[5-chloro-2-(trifluoromethoxy)phenyl]-6-oxo-1,6-dihydropyrimidin-1-yl}-4-fluoro-10-methyl-8,16-diazatricyclo[13.3.1.0^2,7]nonadeca-1(19),2(7),3,5,15,17-hexaen-9-one trifluoroacetate], the Ki in experiment [2] was found to be 3800 nM. Same read-out and setting: as for `C[C@@H]1CCC[C@H](n2cnc(-c3c(Cl)ccc(Cl)c3F)cc2=O)c2cc(ccn2)-c2cc(F)ccc2NC1=O` [Example 147, (10R,14S)-14-[4-(3,6-dichloro-2-fluorophenyl)-6-oxo-1,6-dihydropyrimidin-1-yl]-4-fluoro-10-methyl-8,16-diazatricyclo[13.3.1.0^2,7]nonadeca-1(19),2(7),3,5,15,17-hexaen-9-one trifluoroacetate], the figure is 210 nM; as for `C[C@@H]1CCC[C@H](n2cnc(-c3cc(Cl)ccc3-n3cc(C(N)=NO)nn3)cc2=O)c2cc(ccn2)-c2cc(F)ccc2NC1=O` [Example 149, 1-(4-chloro-2-{1-[(10R,14S)-4-fluoro-10-methyl-9-oxo-8,16-diazatricyclo [13.3.1.0^2,7]nonadeca-1(19),2(7),3,5,15,17-hexaen-14-yl]-6-oxo-1,6-dihydropyrimidin-4-yl}phenyl)-N-hydroxy-1H-1,2,3-triazole-4-carboximidamide bis-trifluoroacetate], 38 nM.

Values taken from US9777001B2 (priority 2014, dated 2017).
